Results on ten compounds are retold here after ChEMBL document CHEMBL4811232 (J Med Chem, 2021).

For data set [1], the target named is T1, Beta-secretase 1 (Homo sapiens, UniProt P56817).
In data set [2] the target is T1, Beta-secretase 1. This is another data set of the same source.
Description: Inhibition of BACE1 in human SH-SY5Y cells expressing wild type betaAPP assessed as reduction in amyloidbeta (1 to 40 residues) level incubated for 24 hrs by HTRF assay
The target in the next data set is Cytochrome P450 2D6 (Homo sapiens, UniProt P10635).
Data set [3] in a line: in vitro. To be noted: human, pooled liver microsomes. (In general: Liver microsomes are a subcellular fraction often used to study metabolism.)
Description: Metabolic stability in human pooled liver microsomes assessed as parent compound remaining at 0.1 uM measured after 30 mins in presence of NADPH by LC-MS/MS analysis
A short description of data set [4]: in vitro. To be noted: Sprague-Dawley, rat, liver microsomes.
Description: Metabolic stability in Sprague-Dawley rat liver microsomes assessed as parent compound remaining at 0.1 uM measured after 30 mins in presence of NADPH by LC-MS/MS analysis
Another data set concerns the target hERG (KCNH2) (Homo sapiens, UniProt Q12809). Description: in vitro. As to conditions: CHO cells expressing human ERG.
In another data set the target is MDR1 (ABCB1, P-gp) (Homo sapiens, UniProt P08183). Description: in vitro. To be noted: MDCK-MDR1.
Data set [5] is described as follows: in vitro. As to conditions: dog, MDCK.
Description: Apparent permeability in MDCK cells
For data set [6] the following is noted: human, microsomes, 1 h, 10 µM.
Description: Drug metabolism in human liver microsomes assessed as total covalent bond binding assessed per mg protein at 10 umol/L incubated for 1 hr in presence of NADPH by liquid scintillation counter analysis
The conditions of data set [7]: human, microsomes, 1 h, 50 µM.
Description: Drug metabolism in human liver microsomes assessed as total covalent bond binding assessed per mg protein at 50 umol/L incubated for 1 hr in presence of NADPH by liquid scintillation counter analysis
The conditions of data set [8]: human, microsomes, 1 h, 10 µM. The source holds these as a separate data set.
Description: Drug metabolism in human liver microsomes assessed as NADPH-independent covalent bond binding assessed per mg protein at 10 umol/L incubated for 1 hr in presence of NADPH by liquid scintillation counter analysis
For data set [9] the following is noted: human, microsomes, 1 h, 50 µM. The source holds these as a separate data set.
Description: Drug metabolism in human liver microsomes assessed as NADPH-independent covalent bond binding assessed per mg protein at 50 umol/L incubated for 1 hr in presence of NADPH by liquid scintillation counter analysis
The conditions of data set [10]: human, microsomes, 1 h, 10 µM. This is another data set of the same source.
Description: Drug metabolism in human liver microsomes assessed as NADPH-dependent covalent bond binding assessed per mg protein at 10 umol/L incubated for 1 hr in presence of NADPH by liquid scintillation counter analysis
The conditions of data set [11]: human, microsomes, 1 h, 50 µM. The source holds these as a separate data set.
Description: Drug metabolism in human liver microsomes assessed as NADPH-dependent covalent bond binding at 50 umol/L incubated for 1 hr in presence of NADPH by liquid scintillation counter analysis

The structures appear in SMILES notation. Where only a bound is given, the exact number is not on record here.

Usually IC50 stands for the concentration that inhibits the measured activity by half. Low values mean greater potency, high ones weaker potency. As usually defined, the inhibition is the share of the control response that was lost under treatment. A higher inhibition goes with a strong effect. By efflux ratio is commonly meant a quotient of directional permeabilities that is used to spot active efflux. Usually Papp stands for a coefficient for how fast a substance crosses the barrier. Low readings indicate slow passage, high ones fast passage. What is called pKa is the pH at which an ionisable group is half protonated. A high value points to a weaker acid or stronger base.

hERG (KCNH2), sequence (Q12809 whole entry): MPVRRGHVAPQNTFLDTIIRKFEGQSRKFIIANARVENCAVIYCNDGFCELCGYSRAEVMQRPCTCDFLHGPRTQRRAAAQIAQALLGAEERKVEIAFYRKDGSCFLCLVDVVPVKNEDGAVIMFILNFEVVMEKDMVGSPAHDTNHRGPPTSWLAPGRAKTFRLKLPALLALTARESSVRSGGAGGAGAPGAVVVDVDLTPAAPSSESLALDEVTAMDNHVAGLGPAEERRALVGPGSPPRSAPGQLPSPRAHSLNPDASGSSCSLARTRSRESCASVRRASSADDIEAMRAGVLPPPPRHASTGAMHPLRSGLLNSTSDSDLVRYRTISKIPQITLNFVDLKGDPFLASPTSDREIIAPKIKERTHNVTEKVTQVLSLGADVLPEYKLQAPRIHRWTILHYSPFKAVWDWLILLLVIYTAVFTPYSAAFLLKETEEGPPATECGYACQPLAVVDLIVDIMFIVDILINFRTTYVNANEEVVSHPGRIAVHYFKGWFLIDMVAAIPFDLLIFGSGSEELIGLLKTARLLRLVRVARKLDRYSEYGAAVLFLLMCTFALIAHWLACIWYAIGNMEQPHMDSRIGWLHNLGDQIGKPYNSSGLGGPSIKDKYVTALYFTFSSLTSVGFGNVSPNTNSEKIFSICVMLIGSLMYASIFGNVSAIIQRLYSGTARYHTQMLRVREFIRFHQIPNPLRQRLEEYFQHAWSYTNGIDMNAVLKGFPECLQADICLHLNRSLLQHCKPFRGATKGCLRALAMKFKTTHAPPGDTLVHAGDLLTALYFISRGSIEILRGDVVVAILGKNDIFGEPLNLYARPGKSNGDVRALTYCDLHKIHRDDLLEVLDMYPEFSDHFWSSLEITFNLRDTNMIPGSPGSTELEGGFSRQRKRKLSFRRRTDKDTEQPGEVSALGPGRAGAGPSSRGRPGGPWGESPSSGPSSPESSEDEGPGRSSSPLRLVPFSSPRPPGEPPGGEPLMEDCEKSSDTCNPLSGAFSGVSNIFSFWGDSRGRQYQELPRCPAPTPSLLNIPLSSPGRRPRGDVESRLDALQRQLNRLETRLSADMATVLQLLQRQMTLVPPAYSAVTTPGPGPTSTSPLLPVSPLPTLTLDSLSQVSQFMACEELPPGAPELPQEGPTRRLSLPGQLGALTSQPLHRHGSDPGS
T1 sequence (P56817 whole entry): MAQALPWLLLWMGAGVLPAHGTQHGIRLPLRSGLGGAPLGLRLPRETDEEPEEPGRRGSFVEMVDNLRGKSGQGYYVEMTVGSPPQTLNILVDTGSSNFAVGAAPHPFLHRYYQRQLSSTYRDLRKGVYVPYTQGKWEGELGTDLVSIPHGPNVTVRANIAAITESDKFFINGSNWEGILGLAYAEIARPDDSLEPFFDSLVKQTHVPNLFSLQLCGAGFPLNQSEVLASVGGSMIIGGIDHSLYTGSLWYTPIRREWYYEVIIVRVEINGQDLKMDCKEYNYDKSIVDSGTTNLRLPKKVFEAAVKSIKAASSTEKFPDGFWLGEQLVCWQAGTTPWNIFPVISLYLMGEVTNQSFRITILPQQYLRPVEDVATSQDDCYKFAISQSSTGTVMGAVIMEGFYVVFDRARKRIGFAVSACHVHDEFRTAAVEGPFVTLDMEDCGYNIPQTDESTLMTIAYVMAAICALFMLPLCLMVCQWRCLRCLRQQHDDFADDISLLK
MDR1 (ABCB1, P-gp), sequence (P08183 whole entry): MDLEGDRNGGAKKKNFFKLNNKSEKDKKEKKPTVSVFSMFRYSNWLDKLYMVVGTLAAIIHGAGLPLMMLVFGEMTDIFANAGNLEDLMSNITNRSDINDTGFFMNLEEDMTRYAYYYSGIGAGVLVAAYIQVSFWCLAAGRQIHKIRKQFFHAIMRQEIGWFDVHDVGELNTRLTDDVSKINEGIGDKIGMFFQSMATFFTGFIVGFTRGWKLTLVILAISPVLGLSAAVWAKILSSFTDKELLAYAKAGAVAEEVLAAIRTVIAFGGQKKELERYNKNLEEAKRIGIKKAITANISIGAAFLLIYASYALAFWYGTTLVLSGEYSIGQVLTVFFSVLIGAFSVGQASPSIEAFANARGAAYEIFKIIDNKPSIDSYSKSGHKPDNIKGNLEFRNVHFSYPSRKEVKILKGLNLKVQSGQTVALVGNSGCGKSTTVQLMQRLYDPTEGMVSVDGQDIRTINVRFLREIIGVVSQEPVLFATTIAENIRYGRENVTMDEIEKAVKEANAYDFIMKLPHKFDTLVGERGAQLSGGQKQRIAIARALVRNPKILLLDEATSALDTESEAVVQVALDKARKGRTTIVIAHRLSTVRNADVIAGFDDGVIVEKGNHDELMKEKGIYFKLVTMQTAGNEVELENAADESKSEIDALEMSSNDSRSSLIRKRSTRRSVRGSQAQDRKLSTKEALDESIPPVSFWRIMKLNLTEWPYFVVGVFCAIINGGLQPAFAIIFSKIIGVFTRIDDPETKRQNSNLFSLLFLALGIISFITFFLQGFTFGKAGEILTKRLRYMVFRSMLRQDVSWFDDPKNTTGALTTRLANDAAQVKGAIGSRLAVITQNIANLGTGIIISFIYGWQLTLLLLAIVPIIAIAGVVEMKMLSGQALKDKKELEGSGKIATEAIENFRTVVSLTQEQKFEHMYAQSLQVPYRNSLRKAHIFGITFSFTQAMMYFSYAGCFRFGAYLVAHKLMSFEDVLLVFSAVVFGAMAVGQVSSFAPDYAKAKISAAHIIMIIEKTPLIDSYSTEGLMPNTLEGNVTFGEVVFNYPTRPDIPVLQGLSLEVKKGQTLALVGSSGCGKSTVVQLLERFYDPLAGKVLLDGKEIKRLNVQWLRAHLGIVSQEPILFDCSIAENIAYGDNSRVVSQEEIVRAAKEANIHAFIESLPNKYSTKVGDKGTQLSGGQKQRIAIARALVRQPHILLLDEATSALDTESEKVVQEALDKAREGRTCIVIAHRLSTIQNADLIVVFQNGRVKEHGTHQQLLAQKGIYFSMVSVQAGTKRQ
Cytochrome P450 2D6, sequence (P10635 whole entry): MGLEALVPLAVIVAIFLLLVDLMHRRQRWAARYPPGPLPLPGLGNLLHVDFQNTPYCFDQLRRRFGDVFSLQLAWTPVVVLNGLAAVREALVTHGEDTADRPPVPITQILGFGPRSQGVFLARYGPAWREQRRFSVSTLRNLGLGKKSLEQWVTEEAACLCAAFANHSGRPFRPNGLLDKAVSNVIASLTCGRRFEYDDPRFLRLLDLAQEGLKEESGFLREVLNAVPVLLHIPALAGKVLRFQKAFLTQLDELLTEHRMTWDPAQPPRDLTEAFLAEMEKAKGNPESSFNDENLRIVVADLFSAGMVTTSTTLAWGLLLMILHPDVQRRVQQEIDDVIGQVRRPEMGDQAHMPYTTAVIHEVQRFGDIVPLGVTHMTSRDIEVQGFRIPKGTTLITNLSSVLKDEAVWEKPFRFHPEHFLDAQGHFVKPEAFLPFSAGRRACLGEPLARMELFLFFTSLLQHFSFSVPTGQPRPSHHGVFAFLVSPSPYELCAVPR
Description for Cytochrome P450 2D6: Inhibition of CYP2D6 in human liver microsomes using dextromethorphan as substrate incubated for 15 mins in presence of NADPH by LC/MS/MS analysis
Description for MDR1 (ABCB1, P-gp): Substrate activity at human MDR1 expressed in MDCK cells assessed as efflux ratio
Description for hERG (KCNH2): Inhibition of human ERG expressed in CHO cells at 5 uM maintained at -80 mV membrane potential by automated patch-clamp assay relative to control
Description for physchem: Dissociation constant, pKa of the compound by capillary electrophoresis method

For the compound `C[C@@]1(c2cc(NC(=O)c3ccc(Cl)cn3)ccc2F)C=CSC(N)=N1`, the IC50 against Beta-secretase 1 [1] is 9.6 nM; against Beta-secretase 1 [2], 5.5 nM; on Cytochrome P450 2D6, less than 1000 nM. In addition, the amount remaining at 0.5 h, 0.1 µM was found to be 78% in “in vitro [3]” and 76% in “in vitro [4]”. Further, the inhibition at 5 µM against hERG (KCNH2) was 80%.
On to `CC1(c2cccc(C(=O)Nc3ccc(Cl)cn3)c2)CCSC(N)=N1` (stereo not drawn), for which the IC50 against Beta-secretase 1 [1] was 1450 nM; against Beta-secretase 1 [2], 170 nM.
With `C[C@@]1(c2cc(NC(=O)c3ncc(C#N)cc3Cl)ccc2F)C=CSC(N)=N1`, the IC50 is 20 nM at Beta-secretase 1 [1], 1.6 nM at Beta-secretase 1 [2] and greater than 20000 nM against Cytochrome P450 2D6. The amount remaining at 0.5 h, 0.1 µM in “in vitro [3]” was found to be 85%; in “in vitro [4]”, 87%. The same compound came in with an inhibition at 5 µM on hERG (KCNH2) of 48%. The efflux ratio at MDR1 (ABCB1, P-gp) was 20.
As to `C[C@@]1(c2cc(NC(=O)c3ccc(F)cn3)ccc2F)C=CSC(N)=N1`, the IC50 against Beta-secretase 1 [1] amounted to 39 nM; on Beta-secretase 1 [2], 4.2 nM; at Cytochrome P450 2D6, 11000 nM. Moreover, the amount remaining at 0.5 h, 0.1 µM was 97% in “in vitro [3]” and 60% in the data set “in vitro [4]”. Further, at 5 µM the inhibition against hERG (KCNH2) was 67%. Besides, the efflux ratio on MDR1 (ABCB1, P-gp) came to 2.
`COc1cnc(C(=O)Nc2ccc(F)c([C@]3(C)C=CSC(N)=N3)c2)cn1`: the IC50 is 21 nM on Beta-secretase 1 [1], 4.4 nM at Beta-secretase 1 [2] and less than 1000 nM at Cytochrome P450 2D6. Also, the amount remaining at 0.5 h, 0.1 µM amounted to 27% in the data set “in vitro [3]” and 88% in “in vitro [4]”. The inhibition at 5 µM at hERG (KCNH2) was 29%. For the same compound, at MDR1 (ABCB1, P-gp), the efflux ratio came out at 1.4.
For the compound `C=C1C[C@@](C)(c2cc(NC(=O)c3ccc(C#N)cn3)ccc2F)N=C(N)S1`, the IC50 against Beta-secretase 1 [1] turned out to be 9.1 nM; against Beta-secretase 1 [2], 1.1 nM. The amount remaining at 0.5 h, 0.1 µM in “in vitro [3]” is 65%; in the data set “in vitro [4]” it was 8%. The same compound yielded an inhibition at 5 µM at hERG (KCNH2) of 78%. The efflux ratio at MDR1 (ABCB1, P-gp) was determined as 5.3. The Papp in the data set “in vitro [5]” amounted to 38 ×10⁻⁶ cm/s. In addition, the pKa in the data set “physchem” came out at 7.8.
On to `C[C@@]1(c2cc(NC(=O)c3ccc(C#N)cn3)ccc2F)CCSC(N)=N1`, for which the fraction remaining at 0.5 h, 0.1 µM in “in vitro [3]” was found to be 104%; in “in vitro [4]” it was 66%. The compound also registered an inhibition at 5 µM against hERG (KCNH2) of 91%. Besides, the Papp in the data set “in vitro [5]” is 12 ×10⁻⁶ cm/s. Also, in the data set “physchem”, the pKa is 9.
Consider `N#Cc1ccc(C(=O)Nc2ccc(F)c([C@]3(CF)CCSC(N)=N3)c2)nc1`, for which the values for the IC50 at Beta-secretase 1 [1] and at Beta-secretase 1 [2] were 16 nM and 0.62 nM, respectively. For the same compound, the amount remaining at 0.5 h, 0.1 µM in the data set “in vitro [3]” was 86%; in “in vitro [4]”, 64%. 5 µM produced 90% inhibition against hERG (KCNH2). Further, the efflux ratio at MDR1 (ABCB1, P-gp) is 22. Moreover, the Papp in “in vitro [5]” is 22 ×10⁻⁶ cm/s. In the data set “physchem”, this compound had a pKa of 7.6.
For `C[C@@]1(c2cc(C(=O)Nc3ccc(Cl)cn3)ccc2F)CCSC(N)=N1`, the IC50 came out at 6.7 nM at Beta-secretase 1 [1] and 0.84 nM against Beta-secretase 1 [2].
In the case of `CCc1ccc(CCOc2ccc(CC3SC(=O)NC3=O)cc2)nc1` (stereo not drawn) [PIOGLITAZONE], the Drug metabolism turned out to be 599 pmol in data set [6]; 3458 pmol in [7]; 4 pmol in [8]; 12 pmol in data set [9]; 594 pmol in data set [10]; 3446 pmol in data set [11].
